# What was measured:
# Experiment in all cases: relative viability (nuclei count vs DMSO), 5 days (fraction); higher = more cells survive
# [1] = compound: CC1=CC=C(C=C1)C(=O)CN2C3=C(CCCC3)SC2=N [Pifithrin_alpha] + CC(=O)Nc1cccc(-n2c(=O)n(C3CC3)c(=O)c3c(Nc4ccc(I)cc4F)n(C)c(=O)c(C)c32)c1 [Trametinib] (partner 0.02 µM)
# How it was run: (§1)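 The day after seeding in 1536-well plates, lung cancer cell lines were treated by pin tool with a single drug, or with a fixed anchor-drug dose together with five library-drug doses (not always all listed) in √10 steps. After 5 days, a combined fix-and-stain solution (final 0.05% Triton X-100, 1% formaldehyde, 1 ug/ml Hoechst) was added. Nuclei counted on 4× images gave relative viability as treated counts over vehicle counts, reported as the median of duplicate plates.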
# [2] = compound: CC1=CC=C(C=C1)C(=O)CN2C3=C(CCCC3)SC2=N [Pifithrin_alpha] + C[C@@H](Oc1cc(-c2cnn(C3CCNCC3)c2)cnc1N)c1c(Cl)ccc(F)c1Cl [Crizotinib] (partner 1 µM)
# How it was run: as §1
# Axitinib + Pictilisib = compound: CNC(=O)c1ccccc1Sc1ccc2c(/C=C/c3ccccn3)n[nH]c2c1 [Axitinib] + CS(=O)(=O)N1CCN(Cc2cc3nc(-c4cccc5[nH]ncc45)nc(N4CCOCC4)c3s2)CC1 [Pictilisib] (partner 1 µM)
# How it was run: as §1
# Axitinib + Olaparib = compound: CNC(=O)c1ccccc1Sc1ccc2c(/C=C/c3ccccn3)n[nH]c2c1 [Axitinib] + O=C(c1cc(Cc2n[nH]c(=O)c3ccccc23)ccc1F)N1CCN(C(=O)C2CC2)CC1 [Olaparib] (partner 8 µM)
# How it was run: as §1
Cell Line,relative viability ([1]; first compound 1 µM),relative viability ([1]; first compound 3.162 µM),relative viability ([1]; first compound 10 µM),relative viability ([1]; first compound 31.62 µM),relative viability ([1]; first compound 100 µM),relative viability ([2]; first compound 1 µM),relative viability ([2]; first compound 3.162 µM),relative viability ([2]; first compound 10 µM),relative viability ([2]; first compound 31.62 µM),relative viability ([2]; first compound 100 µM),relative viability (Axitinib + Pictilisib; first compound 0.005 µM),relative viability (Axitinib + Pictilisib; first compound 0.01581 µM),relative viability (Axitinib + Pictilisib; first compound 0.05 µM),relative viability (Axitinib + Pictilisib; first compound 0.1581 µM),relative viability (Axitinib + Pictilisib; first compound 0.5 µM),relative viability (Axitinib + Olaparib; first compound 0.005 µM),relative viability (Axitinib + Olaparib; first compound 0.01581 µM),relative viability (Axitinib + Olaparib; first compound 0.05 µM),relative viability (Axitinib + Olaparib; first compound 0.1581 µM),relative viability (Axitinib + Olaparib; first compound 0.5 µM)
A-427,0.682,0.727,0.688,0.6,0.552,1,0.85,0.857,0.574,0.932,0.672,0.496,0.77,0.705,0.679,0.778,0.843,0.803,0.753,1.01
LXF-289,0.696,0.731,0.716,0.587,0.718,0.878,0.813,0.805,0.696,0.788,0.823,0.732,0.833,0.765,0.742,1.11,1.03,1.05,0.982,1
NCI-H1355,0.39,0.362,0.298,0.31,0.282,0.995,0.734,0.62,0.619,0.733,0.41,0.514,0.606,0.432,0.308,0.756,0.769,0.729,0.723,0.77
NCI-H1437,0.532,0.491,0.355,0.336,0.264,1.05,0.962,0.892,0.763,1.02,0.437,0.399,0.459,0.418,0.402,0.677,0.623,0.62,0.611,0.629
HCC-366,0.249,0.248,0.238,–,0.187,0.812,0.517,0.418,–,0.198,0.116,0.171,0.146,0.153,0.101,0.362,0.33,0.422,0.304,0.37
NCI-H1299,–,–,–,–,–,0.997,0.992,1.05,0.76,0.897,0.765,0.997,0.75,0.856,1.1,0.983,0.944,0.976,0.983,0.975
201T,0.752,0.616,0.61,0.529,0.518,1.04,0.902,0.862,0.808,0.765,0.671,0.69,0.662,0.675,0.675,0.861,0.805,0.795,0.859,0.875
IA-LM,–,–,–,–,–,0.652,0.622,0.705,0.463,0.433,0.442,0.307,0.331,0.396,0.4,1.07,0.855,0.821,0.808,0.832
NCI-H1734,0.716,0.769,0.648,0.623,0.666,0.826,0.647,0.686,0.592,0.604,0.462,0.432,0.493,0.439,0.436,0.593,0.571,0.62,0.585,0.747
NCI-H1993,0.485,0.418,0.508,0.397,0.4,–,0.771,0.815,0.797,0.794,0.763,0.952,0.805,0.772,0.781,1,1.12,1.04,1.01,1.04
NCI-H2085,0.452,0.444,0.461,0.463,0.445,0.795,0.848,0.7,0.747,0.966,0.457,0.467,0.441,0.507,0.373,0.775,0.769,0.807,0.758,0.787
EBC-1,–,–,–,–,–,0.187,0.21,0.168,0.16,0.152,0.492,0.485,0.459,0.41,0.567,0.788,0.648,0.768,0.69,0.769
COR-L23,0.517,0.709,0.638,–,0.539,0.583,0.723,0.683,–,0.644,0.838,0.779,0.832,0.731,0.944,0.367,0.376,0.326,0.363,0.387
NCI-H1793,0.419,0.371,0.365,0.496,0.437,–,–,–,–,–,0.258,0.253,0.326,0.307,0.256,1,0.715,0.874,0.793,1.05
A549,–,–,–,–,–,0.989,0.761,0.817,0.552,0.799,0.482,0.587,0.48,0.461,0.601,0.471,0.36,0.373,0.327,0.412
EPLC-272H,–,0.282,0.281,0.284,0.268,–,0.921,0.805,0.601,1.05,0.317,0.289,0.391,0.272,0.313,0.845,0.927,0.884,0.475,1.13
NCI-H2009,0.26,0.265,0.253,0.218,0.234,0.963,1.03,0.955,0.679,0.857,0.875,0.877,1,0.868,1.04,0.724,0.686,0.698,0.722,0.819
ChaGo-K-1,0.889,0.936,0.889,0.589,0.862,1.2,1.27,1.08,0.708,1.03,0.725,0.562,0.878,0.643,0.541,0.473,0.445,0.412,0.441,0.438
SW 900,0.698,0.801,0.636,0.57,0.723,–,–,–,–,–,–,–,–,–,–,1.02,–,1.07,0.892,0.927

Cell Line,relative viability ([1]; first compound 1 µM),relative viability ([1]; first compound 3.162 µM),relative viability ([1]; first compound 10 µM),relative viability ([1]; first compound 31.62 µM),relative viability ([1]; first compound 100 µM),relative viability ([2]; first compound 1 µM),relative viability ([2]; first compound 3.162 µM),relative viability ([2]; first compound 10 µM),relative viability ([2]; first compound 31.62 µM),relative viability ([2]; first compound 100 µM),relative viability (Axitinib + Pictilisib; first compound 0.005 µM),relative viability (Axitinib + Pictilisib; first compound 0.01581 µM),relative viability (Axitinib + Pictilisib; first compound 0.05 µM),relative viability (Axitinib + Pictilisib; first compound 0.1581 µM),relative viability (Axitinib + Pictilisib; first compound 0.5 µM),relative viability (Axitinib + Olaparib; first compound 0.005 µM),relative viability (Axitinib + Olaparib; first compound 0.01581 µM),relative viability (Axitinib + Olaparib; first compound 0.05 µM),relative viability (Axitinib + Olaparib; first compound 0.1581 µM),relative viability (Axitinib + Olaparib; first compound 0.5 µM)
NCI-H2342,0.856,0.734,0.811,0.772,0.843,–,–,–,–,–,–,–,–,–,–,0.51,0.464,0.421,0.528,0.44
NCI-H460,0.0943,0.075,0.155,0.0707,0.103,1.4,0.827,0.912,–,0.962,0.403,0.443,0.333,0.323,0.327,0.411,0.402,0.514,0.379,0.498
NCI-H322M,0.436,0.307,0.514,0.509,0.539,0.894,0.907,0.871,0.674,0.986,0.571,0.496,0.474,0.472,0.505,0.965,0.849,0.753,0.724,1.06
HCC-827,0.558,0.562,0.576,0.498,0.573,0.87,0.928,0.875,0.693,0.82,0.911,1.04,0.947,1.08,0.889,0.617,0.566,0.66,0.62,0.812
HOP-62,0.343,0.377,0.368,0.361,0.335,0.97,1.14,0.848,0.645,1.04,0.679,0.861,0.735,0.792,0.583,0.392,0.443,0.321,0.569,0.682
Calu-6,–,–,–,–,–,0.944,0.742,0.813,0.605,0.85,0.861,0.946,1,0.942,1.17,0.554,0.605,0.607,0.555,0.681
NCI-H2023,0.512,0.386,0.324,0.213,0.214,0.505,0.501,0.381,0.3,0.37,0.232,0.195,0.267,0.222,0.272,0.528,0.487,0.495,0.555,0.574
NCI-H441,0.421,0.474,0.409,–,0.333,0.718,0.739,0.806,0.56,0.826,0.456,0.563,0.413,0.571,0.542,0.675,0.499,0.539,0.503,0.453
NCI-H2347,0.301,0.335,0.24,0.293,0.221,0.647,0.868,0.696,0.55,0.643,0.605,0.584,0.876,0.855,0.783,0.592,0.629,0.575,0.65,0.557
NCI-H1648,0.487,0.332,0.453,0.48,0.422,–,–,–,–,–,–,–,–,–,–,0.616,0.975,0.554,0.979,0.958
NCI-H358,0.138,0.124,0.129,0.12,0.121,0.616,0.589,0.516,0.428,0.625,0.369,0.309,0.33,0.336,0.369,0.741,0.567,0.6,0.594,0.682
NCI-H1944,0.395,0.358,0.368,0.319,0.374,1.13,1.18,0.866,–,0.958,0.356,0.336,0.357,0.351,0.357,0.469,0.397,0.384,0.402,0.427
NCI-H1792,0.498,0.389,0.432,–,0.316,0.869,0.821,0.798,0.612,0.573,0.311,0.251,0.213,0.275,0.271,0.458,0.445,0.576,0.485,0.651
ABC-1,–,–,–,–,–,1.09,0.999,1.22,0.817,0.597,0.716,0.773,0.812,0.658,0.834,0.735,–,0.659,0.974,0.78
NCI-H1703,–,–,–,–,–,0.577,0.531,0.803,0.455,1.05,0.228,0.216,0.254,0.231,0.2,0.392,0.225,0.243,0.216,0.201
NCI-H522,0.61,0.754,0.743,0.693,0.618,–,–,–,–,–,–,–,–,–,–,0.61,0.639,0.641,0.562,0.748
NCI-H1563,–,–,–,–,–,0.907,0.846,0.714,0.832,0.731,0.645,0.599,0.647,0.681,0.659,–,–,–,–,–
NCI-H1395,–,1.03,1.11,–,1.19,–,–,–,–,–,0.612,0.559,0.634,0.528,0.684,0.51,0.446,0.432,0.435,0.545
